Several values for one entry are separate records, joined by “and”; a condition that tells them apart may be missing. Equal entries are not always repeated.
Assays:
[1] = system: Hepatocyte; experiment: Cytotoxicity against rat hepatocytes at 10 to 100 uM; assay type: cell-based
[2] = Antiproliferative activity against rat HSC-T6 cells after 48 hrs by MTT assay; assay type: functional, cell-based
[3] = Rattus norvegicus, HSC-T6, 48 h

SMILES | Activity [1] | IC50 [2, 3] [µM] | IC50 ([2]; hsc-t6)
COc1ccc2c(ccc3cc(OC)c(O)c(OC)c32)c1 | Non-toxic | > 100 | 
COc1ccc2c(c1)CCc1c(-c3c(O)c(OC)c(OC)c4c3CCc3cc(OC)ccc3-4)c(O)c(OC)c(OC)c1-2 | Non-toxic | 88.2 | 
COc1cc(O)c2c(c1)CCc1cccc(O)c1-2 | Non-toxic | > 100 | 
COc1ccc2c(ccc3cc(O)c(OC)c(OC)c32)c1O | Non-toxic | 54.1 | 
COc1ccc2c(c1O)CCc1cc(O)c(OC)c(OC)c1-2 | Non-toxic | 35.7 | 
COc1cc2cc(O)c(O)c(OC)c2c2c(O)cccc12 | Non-toxic | 9 | 
COc1ccc2c(c1)CCc1cc(OC)c(O)c(OC)c1-2 | Non-toxic | > 100 | 
COc1ccc2c(c1)CCc1cc(O)c(OC)c(OC)c1-2 | Non-toxic | > 100 | 
COc1c(O)cc2ccc3cccc(O)c3c2c1OC | Non-toxic | > 100 | 
COc1cc2ccc3cccc(O)c3c2c(OC)c1O [BULBOPHYLLANTHRIN] | Non-toxic | 50.9 | 
COc1ccc2c(c1)CCc1cc(O)cc(OC)c1-2 [COELONIN] | Non-toxic |  | 13.4 µM and 69.1 µM
COC1=CC(=O)c2ccc3cc(OC)cc(O)c3c2C1=O [DENBINOBIN] | Non-toxic | 15.2 | 
COc1cc2c(c(O)c1OC)-c1ccc(O)cc1CC2 [EPHEMERANTHOL A] | Non-toxic | 79.2 | 
O=C(O[C@@H]1Cc2c(O)cc(O)cc2O[C@@H]1c1cc(O)c(O)c(O)c1)c1cc(O)c(O)c(O)c1 [EPIGALOCATECHIN GALLATE] |  | 9.9 | 
COc1c(O)cc2c(c1OC)-c1ccc(O)cc1CC2 [ERIANTHRIDIN] | Non-toxic | 73.2 | 
COc1c(O)c(O)cc2ccc3cccc(O)c3c12 [FIMBRIOL B] | Non-toxic | 11 | 
COc1cc(O)c2c(c1)CCc1cc(O)ccc1-2 [LUSIANTHRIDIN] | Non-toxic | 61.2 | 
COc1c(O)cc2ccc3cc(O)ccc3c2c1OC [NUDOL] | Non-toxic | > 100 | 
COc1c(OC)c2cc(O)cc(OC)c2c2c(O)cccc12 [PLICATOL A] | Non-toxic | > 100 | 

Reference: ChEMBL document CHEMBL1141443, “Antifibrotic phenanthrenes of Dendrobium nobile stems” (J Nat Prod, 2007)
